# Molecular target: T1, Mer (Homo sapiens, UniProt Q12866)
# T1 construct: purchased Life Technologies
# T1 sequence (Q12866 21-999): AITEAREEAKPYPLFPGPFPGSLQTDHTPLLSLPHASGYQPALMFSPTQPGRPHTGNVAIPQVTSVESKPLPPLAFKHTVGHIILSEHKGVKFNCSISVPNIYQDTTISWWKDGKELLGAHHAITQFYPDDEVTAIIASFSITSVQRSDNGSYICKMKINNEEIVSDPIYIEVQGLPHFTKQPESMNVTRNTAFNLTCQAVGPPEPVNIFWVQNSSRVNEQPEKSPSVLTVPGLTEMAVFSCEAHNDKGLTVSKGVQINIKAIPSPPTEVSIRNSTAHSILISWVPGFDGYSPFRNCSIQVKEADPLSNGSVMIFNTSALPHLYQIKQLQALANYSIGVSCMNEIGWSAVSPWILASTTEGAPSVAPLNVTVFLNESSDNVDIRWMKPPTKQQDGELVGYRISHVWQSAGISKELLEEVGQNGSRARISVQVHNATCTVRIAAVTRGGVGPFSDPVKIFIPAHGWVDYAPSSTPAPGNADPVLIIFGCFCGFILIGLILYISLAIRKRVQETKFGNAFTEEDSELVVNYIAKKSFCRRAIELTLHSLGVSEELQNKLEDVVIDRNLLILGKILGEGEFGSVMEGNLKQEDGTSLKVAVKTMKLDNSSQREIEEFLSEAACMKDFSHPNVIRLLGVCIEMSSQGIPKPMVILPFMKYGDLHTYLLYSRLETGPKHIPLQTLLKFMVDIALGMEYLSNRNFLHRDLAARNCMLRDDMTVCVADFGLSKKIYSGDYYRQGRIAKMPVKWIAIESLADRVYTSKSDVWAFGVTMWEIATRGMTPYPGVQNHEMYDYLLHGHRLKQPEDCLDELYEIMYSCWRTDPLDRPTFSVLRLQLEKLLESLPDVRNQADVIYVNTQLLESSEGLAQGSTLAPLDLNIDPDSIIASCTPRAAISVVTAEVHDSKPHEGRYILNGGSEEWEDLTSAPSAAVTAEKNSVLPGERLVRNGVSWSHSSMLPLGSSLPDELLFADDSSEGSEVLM
# Test: LanthaScreen Eu kinase binding assay for Mer
# Settings: read-out: Mer kinase binding activity (Kd)
# Experimental: LanthaScreen® Eu Kinase Binding assays were conducted at Life Technologies using the manufacturer's specifications for each kinase indicated.
# Briefly, the principle behind this assay is based upon the binding and displacement of an Alexa Fluor 647-labeled tracer to the kinase of interest. Binding of the tracer to the kinase is detected using an EU-labeled anti-tag antibody. Simultaneous binding of both the tracer and antibody to the kinase gives rise to a FRET-signal. Binding of an inhibitor to the kinase competes for binding with the tracer, resulting in a loss of FRET-signal.
# A given compound was diluted in DMSO to make a stock compound solution. The stock compound solution was serially diluted over eight steps in DMSO. Each diluted compound solution in DMSO was diluted in kinase buffer. Afterwards four kinds of working solution were prepared. First, Tracer-Working solution consists of Tracer 236 and Kinase Buffer. Second, Axl, Mer, Tyro3 or Met/anti-GST-AB-Working solution contained one of the kinases Axl, and Mer or anti-GST-AB (=anti glutathione-S-transferase antibody) in Kinase Buffer. Third, anti-GST-AB-Working solution was made with anti-GST-AB and Kinase Buffer. Last, in the DMSO-Working solution DMSO was added to Kinase Buffer to a final concentration to 3%. Each of the four kinds of working solutions were separately added to the assay plate and then incubated for 1 h at room temperature. After incubation, the assay plate was measured with respect to the FRET-Signal with the EnVision (Perkin Elmer) using the program LanthaHTRF-Assay. Data evaluation was done in the Quattro Workflow software. Kd (the equilibrium dissociation constant) values were calculated relative to vehicle (DMSO) control wells.
row,SMILES,Kd [nM]
1,CCCn1cc(OCCNC)c(C(=O)Nc2ccc(Oc3ccnc4cc(OC)c(OC)cc34)cn2)n1 [Compound 140],100 to 500
2,CNCCOc1cn(C2CC2)nc1C(=O)Nc1ccc(Oc2ccnc3cc(OC)c(OC)cc23)cn1 [Compound 141],≥ 500
3,COc1cc2nccc(Oc3ccc(NC(=O)c4nn(C5CC5)cc4OCC4CNC4)nc3)c2cc1OC [Compound 144],100 to 500
4,CNCCn1cc(OCC(F)(F)F)c(C(=O)Nc2ccc(Oc3ccnc4cc(OC)c(OC)cc34)c(F)c2)n1 [Compound 155],100 to 500
5,CNCCn1cc(OCC(F)(F)F)c(C(=O)Nc2ccc(Oc3ccnc4cc(OC)c(OC)cc34)c(C)c2)n1 [Compound 156],100 to 500
6,COc1cc2nccc(Oc3ccc(NC(=O)c4nn(C5CCN(C)C5)cc4OCC(F)(F)F)nn3)c2cc1OC (centres unmarked) [Compound 157],100 to 500
7,CCCn1cc(OCC2CNC2)c(C(=O)Nc2ccc(Oc3ccnc4cc(OC)c(OC)cc34)cn2)n1 [Compound 159],≥ 500
8,CNCCOc1cn(C2CC2)nc1C(=O)Nc1ccc(Oc2ccnc3cc(OC)c(OC)cc23)nn1 [Compound 160],≥ 500
9,COc1cc2nccc(Oc3ccc(NC(=O)c4nn(C5CC5)cc4OCC(F)F)nn3)c2cc1OC [Compound 162],< 100
10,COc1cc2nccc(Oc3ccc(NC(=O)c4nn(CC(C)O)cc4OCC4CCC4)nc3)c2cc1OC (centres unmarked) [Compound 163],< 100
11,CCCn1cc(OCC2CCOCC2)c(C(=O)Nc2ccc(Oc3ccnc4cc(OC)c(OC)cc34)cn2)n1 [Compound 164],< 100
12,CCCn1cc(OCCN(C)C)c(C(=O)Nc2ccc(Oc3ccnc4cc(OC)c(OC)cc34)c(F)c2)n1 [Compound 165],≥ 500

# Results, then the compound that gave them:
row,Kd [nM],SMILES
1,< 100,COc1cc2nccc(Oc3ccc(NC(=O)c4nn(C5CC5)cc4NCCC(F)(F)F)nc3)c2cc1OC [Compound 142]
2,< 100,COc1cc2nccc(Oc3ccc(NC(=O)c4nn(C5CC5)cc4OCC4COC4)nc3)c2cc1OC [Compound 143]
3,< 100,COc1cc2nccc(Oc3ccc(NC(=O)c4nn(C5CC5)cc4NCC(F)(F)F)nc3)c2cc1OC [Compound 145]
4,< 100,COc1cc2nccc(Oc3ccc(NC(=O)c4nn(C5CC5)cc4NCCC(F)(F)F)nn3)c2cc1OC [Compound 146]
5,< 100,COc1cc2nccc(Oc3ccc(NC(=O)c4nn(C5CC5)cc4OC(C)C)nn3)c2cc1OC [Compound 147]
6,< 100,COc1cc2nccc(Oc3ccc(NC(=O)c4nn(C5CC5)cc4NCC(F)(F)F)nn3)c2cc1OC [Compound 148]
7,< 100,COc1cc2nccc(Oc3ccc(NC(=O)c4nn(C5CC5)cc4OCC4CCC4)nn3)c2cc1OC [Compound 149]
8,< 100,COCCOc1cn(CC(C)O)nc1C(=O)Nc1ccc(Oc2ccnc3cc(OC)c(OC)cc23)cn1 (centres unmarked) [Compound 150]
9,< 100,COc1cc2nccc(Oc3ccc(NC(=O)c4nn(CC(C)O)cc4OC(C)C)nc3)c2cc1OC (centres unmarked) [Compound 151]
10,< 100,COc1cc2nccc(Oc3ccc(NC(=O)c4nn(CC(C)O)cc4OCCF)nc3)c2cc1OC (centres unmarked) [Compound 152]
11,< 100,COc1cc2nccc(Oc3ccc(NC(=O)c4nn(CCOC5CC5)cc4OCC(F)(F)F)nc3)c2cc1OC [Compound 153]
12,< 100,CNCCn1cc(OCC(F)(F)F)c(C(=O)Nc2ccc(Oc3ccnc4cc(OC)c(OC)cc34)cc2F)n1 [Compound 154]
13,< 100,CCCn1cc(NCCC(F)(F)F)c(C(=O)Nc2ccc(Oc3ccnc4cc(OC)c(OC)cc34)cn2)n1 [Compound 158]
14,< 100,COc1cc2nccc(Oc3ccc(NC(=O)c4nn(C5CC5)cc4OCC4COC4)nn3)c2cc1OC [Compound 161]
